Source: patent US9108923B2, “Compounds, compositions, and methods for cancer therapy” (The Broad Institute, Inc., priority 2012, dated 2015)
Where two headings read alike, the source gives them in different places.

Columns and labels:
H1703 = assay: ATP Assay (CellTiter-Glo), cellular ATP levels as surrogate for cell viability; type: cell-based, human; settings: cellular ATP levels, 48 h, read-out: EC50 H1703
Method: (§1) ATP Assay. […] At that time, media was removed and replaced with a solution of CellTiter-Glo reagent (Promega) in PBS. After ten minutes, luminescence was read using an EnVision multilabel plate reader (Perkin-Elmer) and signal intensity was calculated relative to in-plate DMSO control wells.
(§2) We next sought to determine the performance of the synthetic analogs relative to PL in cells. […] As a second assay, effects of compound treatments on ATP levels, a surrogate for cell viability, were measured after 48 hours.
(§3) Assays were performed in 384-well plates on two human cancer cell lines, H1703 (lung) and HeLa (cervix).

HeLa = assay: as above; type: cell-based, human; settings: cellular ATP levels, 48 h, read-out: EC50 HeLa
Method: as §1, §2, §3

[1] = Homo sapiens, NCI-H1703, Table 1
[2] = Homo sapiens, NCI-H1703, Table 2

Row | SMILES | EC50 (H1703; [2]) [µM] | EC50 (HeLa; Homo sapiens, HeLa, Table 2) [µM] | also measured
1 | COC(=O)CSC1CCN(C(=O)/C=C/c2cc(OC)c(OC)c(OC)c2)C(=O)C1 (stereo not shown) [Cpd. 7] |  |  | EC50 (H1703; [1]): 7.9 µM; EC50 (HeLa; Homo sapiens, HeLa, Table 1): > 20 µM
2 | COc1cc(/C=C/C(=O)N2C(=O)C=CCC2c2ccsc2)cc(OC)c1OC (stereo not shown) [Cpd. 7] | 2 | 2 | 
3 | C=C(C)C(=O)NC(=O)/C=C/C [Cpd. 76, (E)-N-methacryloylbut-2-enamide] | 8 | > 20 | 
4 | COc1cc(/C=C/C(=O)N2CCC=C(C)C2=O)cc(OC)c1OC [compound 3, (E)-3-methyl-1-(3-(3,4,5-trimethoxyphenyl)prop-2-enoyl)-5,6-dihydropyridin-2(1H)-one] |  |  | EC50 (H1703; [1]): > 20 µM; EC50 (H1703; Table 2): > 20 µM; EC50 (HeLa; Homo sapiens, HeLa, Table 1): > 20 µM; EC50 (HeLa; Table 2): > 20 µM
5 | COc1cc(/C=C/C(=O)N2C(=O)C=CCC2c2cccnc2)cc(OC)c1OC (stereo not shown) [compound 8] | 3 | 6 | 
6 | COc1cc(/C=C/C(=O)N2CCC(C)=CC2=O)cc(OC)c1OC [compound 8] |  |  | EC50 (H1703; [1]): > 20 µM; EC50 (HeLa; Homo sapiens, HeLa, Table 1): > 20 µM
7 | C/C(=C\C(=O)N1CCC=CC1=O)c1ccccc1 [compound 9] |  |  | EC50 (H1703; [1]): 14 µM; EC50 (HeLa; Homo sapiens, HeLa, Table 1): > 20 µM
8 | COc1ccc(C2CC=CC(=O)N2C(=O)/C=C/c2cc(OC)c(OC)c(OC)c2)cc1 (stereo not shown) [compound 9] | 4 | 7 | 
9 | COc1cc(/C=C/C(=O)N2C(=O)C=CCC2c2cccs2)cc(OC)c1OC (stereo not shown) [compound 10] | 2 | 4 | 
10 | O=C1C=CCCN1C(=O)c1cc2ccccc2s1 [compound 10] |  |  | EC50 (H1703; [1]): 18 µM; EC50 (HeLa; Homo sapiens, HeLa, Table 1): > 20 µM
11 | COc1cc(/C=C/C(=O)N2C(=O)C=CCC2C2CCCCC2)cc(OC)c1OC (stereo not shown) [compound 11] | 6 | 7 | 
12 | COc1cc2c(c(OC)c1OC)CCC(C(=O)N1CCC=CC1=O)=C2 [compound 11] |  |  | EC50 (H1703; [1]): 14 µM; EC50 (HeLa; Homo sapiens, HeLa, Table 1): > 20 µM
13 | COc1cc(/C=C/C(=O)N2C(=O)C=CCC2C2CCCC2)cc(OC)c1OC (stereo not shown) [compound 12] | 6 | 6 | 
14 | O=C1C=CCCN1C(=O)/C=C/c1ccccc1Cl [compound 13] |  |  | EC50 (H1703; [1]): 4 µM; EC50 (HeLa; Homo sapiens, HeLa, Table 1): 7.5 µM
15 | COc1cc(/C=C/C(=O)N2C(=O)C=CCC2c2ccccc2)cc(OC)c1OC (stereo not shown) [compound 14] |  |  | EC50 (H1703; [1]): 3.6 µM; EC50 (HeLa; Homo sapiens, HeLa, Table 1): 6.8 µM
16 | O=Cc1ccc(/C=C/C(=O)N2CCC=CC2=O)cc1 [compound 14] | 5 | 8 | 
17 | COc1cc(/C=C/C(=O)N2CC(c3cccs3)C=CC2=O)cc(OC)c1OC (stereo not shown) [compound 15] |  |  | EC50 (H1703; [1]): 6.5 µM; EC50 (HeLa; Homo sapiens, HeLa, Table 1): 15 µM
18 | O=C1C=CCCN1C(=O)c1cc2ccccc2o1 [compound 15] | 10 | 20 | 
19 | O=C1C=CCCN1S(=O)(=O)/C=C/c1ccccc1 [compound 16] |  |  | EC50 (H1703; [1]): 2.7 µM; EC50 (HeLa; Homo sapiens, HeLa, Table 1): 4.1 µM
20 | COc1cc(/C=C/C(=O)N2CCC=C(C#CC3CCCC3)C2=O)cc(OC)c1OC [compound 17] | 1 | 3 | 
21 | COc1cc(/C=C/C(=O)N2CCC=C(c3ccccc3)C2=O)cc(OC)c1OC [compound 18] |  |  | EC50 (H1703; [1]): > 20 µM; EC50 (HeLa; Homo sapiens, HeLa, Table 1): > 20 µM
22 | O=C1C=CCCN1C(=O)/C=C/c1cccc(C(F)(F)F)c1 [compound 18] | 5 | 6 | 
23 | COC1=CC(=O)N(C(=O)/C=C/c2cc(OC)c(OC)c(OC)c2)C1 [compound 19] |  | > 20 | 
24 | COc1cc(/C=C/C(=O)N2CCC=C(c3ccc(F)cc3)C2=O)cc(OC)c1OC [compound 20] | > 20 | > 20 | 
25 | CCC1=C(C)CN(C(=O)/C=C/c2cc(OC)c(OC)c(OC)c2)C1=O [compound 21] | > 20 | > 20 | 

Row | SMILES | EC50 (H1703; [2]) [µM] | EC50 (HeLa; Homo sapiens, HeLa, Table 2) [µM] | also measured
26 | O=C1C=CCCN1C(=O)c1ccc2ccccc2c1 [compound 22] | 9 | 20 | 
27 | COc1cc(/C=C/C(=O)N2CCC=CC2=O)c(F)c(OC)c1OC [compound 23] | 0.8 | 3 | 
28 | COc1cc(/C=C/C(=O)N2CCC=C(c3cccnc3)C2=O)cc(OC)c1OC [compound 24] | > 20 | > 20 | 
29 | COc1cc(/C=C/C(=O)N2CCC(C)=CC2=O)cc(OC)c1OC [compound 26] |  |  | EC50 (H1703; Table 2): > 20 µM; EC50 (HeLa; Table 2): > 20 µM
30 | C/C(=C\C(=O)N1CCC=CC1=O)c1ccccc1 [compound 27] |  |  | EC50 (H1703; Table 2): 14 µM; EC50 (HeLa; Table 2): > 20 µM
31 | O=C1C=CCCN1C(=O)c1cc2ccccc2s1 [compound 28] |  |  | EC50 (H1703; Table 2): 18 µM; EC50 (HeLa; Table 2): > 20 µM
32 | CCCCC#CC1=CCCN(C(=O)/C=C/c2cc(OC)c(OC)c(OC)c2)C1=O [compound 31] | 0.9 | 2 | 
33 | COc1cc(/C=C/C(=O)N2CCC=CC2=O)cc(OC)c1OCCN(C)C [compound 32] | 1.5 | 4 | 
34 | O=C1C=CCCN1C(=O)c1cc2ccccc2oc1=O [compound 34] | 5 | 15 | 
35 | COc1cc(/C=C/C(=O)N2CCC=C(C#Cc3ccccc3Cl)C2=O)cc(OC)c1OC [compound 35] | 0.6 | 1.5 | 
36 | COc1cc(/C=C/C(=O)N2CCC=C(C#CC3(O)CCCCC3)C2=O)cc(OC)c1OC [compound 36] | 0.5 | 1.5 | 
37 | COc1cc(/C=C(\C)C(=O)N2CCC=CC2=O)cc(OC)c1OC [compound 37] | 4 | 18 | 
38 | COc1cc(/C=C/C(=O)N2CCC=C(C#Cc3cccc(Cl)c3)C2=O)cc(OC)c1OC [compound 40] | 1.5 | 5 | 
39 | COc1cc(/C=C/C(=O)N2CCC=CC2=O)cc(OC)c1OCCN(CCOc1c(OC)cc(/C=C/C(=O)N2CCC=CC2=O)cc1OC)CCOc1c(OC)cc(/C=C/C(=O)N2CCC=CC2=O)cc1OC [compound 41] | 0.1 | 0.3 | 
40 | CC1=C(C(=O)N2CCC=CC2=O)Cc2ccccc21 [compound 42] | 12 | > 20 | 
41 | COc1cc(/C=C/C(=O)N2CCC=C(C#CC(C)(C)C)C2=O)cc(OC)c1OC [compound 43] | 0.7 | 1.2 | 
42 | COc1cc(/C=C/C(=O)N2CCC=C(C3CCCCC3)C2=O)cc(OC)c1OC [compound 44] | > 20 | > 20 | 
43 | COc1cc(/C=C/C(=O)N2CCC=C(C#CC3=CCCCC3)C2=O)cc(OC)c1OC [compound 45] | 3 | 5 | 
44 | COc1cc(/C=C/C(=O)N2CC=CCC2=O)cc(OC)c1OC [compound 46] | 13 | > 20 | 
45 | COc1cc(/C=C/C(=O)N2CCC(C)=C(C)C2=O)cc(OC)c1OC [compound 47] | > 20 | > 20 | 
46 | COc1cc(/C=C/C(=O)N2CCC=C(C#Cc3ccc(OC(F)(F)F)cc3)C2=O)cc(OC)c1OC [compound 48] | 0.7 | 3 | 
47 | O=C1C=CCCN1C(=O)/C=C/c1ccccc1Cl [compound 49] |  |  | EC50 (H1703; Table 2): 4 µM; EC50 (HeLa; Table 2): 7.5 µM
48 | COc1cc(/C=C/C(=O)N2C(=O)C=CCC2c2ccccc2)cc(OC)c1OC (stereo not shown) [compound 50] |  |  | EC50 (H1703; Table 2): 3.6 µM; EC50 (HeLa; Table 2): 6.8 µM
49 | COc1cc(/C=C/C(=O)N2CC(c3cccs3)C=CC2=O)cc(OC)c1OC (stereo not shown) [compound 51] |  |  | EC50 (H1703; Table 2): 6.5 µM; EC50 (HeLa; Table 2): 15 µM
50 | COc1cc(/C=C/C(=O)N2CCC=C(c3ccccc3)C2=O)cc(OC)c1OC [compound 54] |  |  | EC50 (H1703; Table 2): > 20 µM; EC50 (HeLa; Table 2): > 20 µM

More lines, main results first:

Row | EC50 (H1703; [2]) [µM] | EC50 (HeLa; Homo sapiens, HeLa, Table 2) [µM] | SMILES | also measured
51 | 3 | > 20 | COc1cc(/C=C/C(=O)N2CCC=C(I)C2=O)cc(OC)c1OC [compound 55] | 
52 | 4 | 9 | CCCCCCCCCCC#CC1=CCCN(C(=O)/C=C/c2cc(OC)c(OC)c(OC)c2)C1=O [compound 57] | 
53 | 8 | 11 | COc1cc(/C=C(\F)C(=O)N2CCC=CC2=O)cc(OC)c1OC [compound 58] | 
54 | 1.5 | 3 | COc1cc(/C=C/C(=O)N2CCC=C(C#CC3CCCCC3)C2=O)cc(OC)c1OC [compound 59] | 
55 | 0.5 | 1.5 | COc1cc(/C=C/C(=O)N2CCC=C(C#Cc3ccccc3)C2=O)cc(OC)c1OC [compound 61] | 
56 | 5 | 7 | O=C1C=CCCN1C(=O)/C=C/c1cccc(Br)c1 [compound 62] | 
57 | 2 | 10 | COc1cc(/C=C/C(=O)N2CCC=C(C#CCc3ccccc3)C2=O)cc(OC)c1OC [compound 63] | 
58 |  | > 20 | COc1cc(CCC(=O)N2CCCCC2=O)cc(OC)c1OC [compound 65] | 
59 |  | > 20 | COc1cc(/C=C/C(=O)N2CCC=C(c3ccc(C)cc3)C2=O)cc(OC)c1OC [compound 66] | 
60 | 0.2 | 0.5 | COc1cc(/C=C/C(=O)N2CCC=CC2=O)cc(OC)c1OCCN(C)CCOc1c(OC)cc(/C=C/C(=O)N2CCC=CC2=O)cc1OC [compound 67] | 
61 | 0.4 | 0.9 | COc1cc(/C=C/C(=O)N2CCC=C(C#Cc3ccc(F)cc3)C2=O)cc(OC)c1OC [compound 68] | 
62 | 1 | 2 | COc1cc(/C=C/C(=O)N2CCC=C(C#Cc3ccsc3)C2=O)cc(OC)c1OC [compound 69] | 
63 | 10 | > 20 | O=C1C=CCCN1C(=O)/C(F)=C/c1ccccc1 [compound 70] | 
64 | > 20 | > 20 | COc1cc(/C=C/C(=O)N2CCC=C(c3ccc(Oc4ccccc4)cc3)C2=O)cc(OC)c1OC [compound 71] | 
65 | 4.7 | 19 | C=C(C)C(=O)N1CCC=CC1=O [compound 73] | 
66 | 2.3 | 11 | O=C1C=CCCN1C(=O)/C=C/C(=O)N1CCC=CC1=O [compound 74] | 
67 | 0.91 | 4.1 | O=C(C#Cc1ccccc1)N1CCC=CC1=O [compound 75] | 
